This passage reports IC50 results from patent US20230212180A1, “SUBSTITUTED PYRAZINE COMPOUND, PHARMACEUTICAL COMPOSITION COMPRISING SAME, AND USE THEREOF” (Sichuan Kelun-Biotech Biopharmaceutical Co., Ltd., priority 2020, published 2023).

For test [1], the system named is KYSE-520 cell (human esophageal squamous cell carcinoma cell). As to the kind of experiment: Inhibition of the proliferation activity of KYSE-520 cell (CellTiter-Glo). The test is classed as cell-based. As to conditions: 120 h, KYSE-520 cell proliferation, 5 days. The procedure:
Test Example 2: Experiment on the Inhibition of the Proliferation Activity of KYSE-520 Cell (Human Esophageal Squamous Cell Carcinoma Cell)
cell: KYSE-520 (JCRB Cell Bank);
(§1) kit: CellTiter-Glo® Luminescent Cell Viability Assay Kit (Promega).
(§2) inoculation amount of cell: 1500 cells/well;
incubation conditions for compound: 37° C., 5% CO2;
(§3) incubation duration: 5 days;
(§4) detecting temperature: room temperature;
(§5) chemiluminescence detection using the BMG PHERAstar FS reader.
(§6) Cells were cultured in a medium containing 10% fetal bovine serum under the culture conditions of 37° C. and 5% CO2. An appropriate amount of cells were plated into a 96-well plate and cultured overnight in an incubator to allow the cells to adhere to the wall. The following day, the medium was removed and a complete medium containing a pre-diluted compound was added and incubated at 37° C. for 5 days. On the fifth day, the detection reagent CellTiter-Glo® was added into each well. Chemiluminescence was adopted to detect the relative luminescence units (RLUs) of the wells.
(§7) The result of a well containing cell-free medium, treated with CellTiter-Glo®, was obtained as the blank value. Cell viability (%)=(sample RLU−blank RLU)/(vehicle RLU−blank RLU)×100%, and maximum inhibition rate (%)=100%−cell viabilitymax. conc. (%). The half maximal inhibitory concentration (IC50) of the compound was calculated by fitting the curve according to the four-parameter logistic model.
A general note: In ATP-based viability assays light output follows the ATP content of the culture.

Test [2] deals with T1, recombinant full-length human PTPN11 (SHP2) (Homo sapiens, UniProt Q06124).
T1 construct: recombinant full-length human PTPN11 (SHP2), active (SignalChem); purchased SignalChem
T1 sequence (Q06124 1-593): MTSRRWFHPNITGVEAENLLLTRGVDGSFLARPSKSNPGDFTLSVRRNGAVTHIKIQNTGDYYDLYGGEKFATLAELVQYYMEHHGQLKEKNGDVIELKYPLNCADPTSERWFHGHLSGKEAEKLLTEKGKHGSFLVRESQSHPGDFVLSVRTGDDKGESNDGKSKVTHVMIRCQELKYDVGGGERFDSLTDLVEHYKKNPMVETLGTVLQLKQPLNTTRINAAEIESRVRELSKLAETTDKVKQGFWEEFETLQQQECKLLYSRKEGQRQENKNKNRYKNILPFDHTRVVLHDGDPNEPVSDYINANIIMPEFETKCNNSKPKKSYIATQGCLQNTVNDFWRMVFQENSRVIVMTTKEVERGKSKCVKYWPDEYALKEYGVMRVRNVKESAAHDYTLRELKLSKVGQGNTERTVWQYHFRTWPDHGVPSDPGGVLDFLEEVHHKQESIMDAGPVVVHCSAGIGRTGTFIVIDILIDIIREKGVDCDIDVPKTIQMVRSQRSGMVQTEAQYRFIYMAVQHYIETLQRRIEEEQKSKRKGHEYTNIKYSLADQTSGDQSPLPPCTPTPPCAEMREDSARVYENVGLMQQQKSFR
As to the kind of experiment: Inhibition of in vitro enzyme activity of SHP2 (DiFMUP fluorescence endpoint assay). It counts as biochemical. As to conditions: SHP2 0.5 nM, DiFMUP 200 μM, IRS-1 0.5 μM; 60 min incubation. The procedure: Test Example 1: Experiment on the Inhibition of In Vitro Enzyme Activity of SHP2 (Protein Phosphatase)
phosphatase: recombinant full-length human PTPN11 (SHP2), active (SignalChem);
substrate: 6,8-difluoro-4-methylumbelliferyl phosphate (DiFMUP) (Invitrogen);
activating peptide: IRS1_pY1172(dPEG8)pY1222 (IRS1) (BPS Bioscience);
terminator: bpv(phen) (bpv) (Abcam).
SHP2 concentration: 0.5 nM;
DiFMUP concentration: 200 μM;
IRS-1 concentration: 0.5 μM;
bpv concentration: 160 μM;
buffer systems: 60 mM Hepes pH 7.2; 75 mM NaCl; 75 mM KCl; 0.05% surfactant P20; 1 mM EDTA; 5 mM DTT;
incubation duration of compound and enzyme: 60 minutes;
reaction time of enzyme and substrate: 30 minutes;
parameters for microplate reader: BMG PHERAstar fluorescence microplate reader at an excitation wavelength of 340 nm and an emission wavelength of 450 nm.
Test group: A mixture of the test compound and the phosphatase SHP2 together with the activating peptide IRS-1 were incubated in the buffer system at room temperature for 60 minutes. The substrate DiFMUP was added to initiate the reaction and incubated at room temperature for 30 minutes. Thereafter, bpv was added to terminate the reaction. The reaction plate was placed in the microplate reader, and the fluorescence intensities of the wells in the plate were measured using an endpoint assay.
Negative group: The experimental method for the negative group was the same as that for the test group, except that the test compound was substituted with 0.05% aqueous solution of DMSO.
Blank group: The experimental method for the blank group was the same as that for the test group, except that the test compound was substituted with 0.05% aqueous solution of DMSO and that SHP2 was not added.
The relative inhibitory activity was calculated for the test group at each concentration based on the following equation: inhibition rate (%)=100%−(the fluorescence intensity of the test group−the fluorescence intensity of the blank group)/(the fluorescence intensity of the negative group−the fluorescence intensity of the blank group)×100%. The half maximal inhibitory concentration (IC50) of the compound was calculated by fitting the curve according to the four-parameter logistic model.

The test system of test [3] is NCI-H358 cell (human non-small cell lung cancer cell). The test is described as follows: Inhibition of the proliferation activity of NCI-H358 cell (CellTiter-Glo). The test is classed as cell-based. The settings on record: 120 h, 5 days. The procedure: Test Example 4: Experiment on the Inhibition of the Proliferation Activity of NCI-H358 Cell (Human Non-Small Cell Lung Cancer Cell)
cell: NCI-H358 (Nanjing CoBioer);
as §1, §2
incubation conditions for compounds: 37° C., 5% CO2;
as §3, §4, §5, §6, §7

The structures appear in SMILES notation.

Take `CC(C)(O)C1CN(c2nccc(Sc3cnc(N4CCC5(CC4)Cc4ncccc4[C@H]5N)cn3)c2Cl)C1` [Example 45, (S)-2-(1-(4-(5-(5-amino-5,7-dihydrospiro[cyclopenta[b]pyridine-6,4′-piperidin]-1′-yl)pyrazin-2-ylthio)-3-chloropyridin-2-yl)azetidin-3-yl)propan-2-ol]: the IC50 in test [1] came out at 210 nM; in test [2] it was 4.1 nM.

As for `C[C@@H]1OCC2(CCN(c3ncc(Sc4ccc(N5CC(C(C)(C)O)C5)nc4Cl)nc3CO)CC2)[C@@H]1N` [Example 11, 2-(1-(5-(5-((3S,4S)-4-amino-3-methyl-2-oxa-8-azaspiro[4.5]decan-8-yl)-6-(hydroxymethyl)pyrazin-2-ylthio)-6-chloropyridin-2-yl)azetidin-3-yl)propan-2-ol], the IC50 in test [2] amounted to 9.3 nM.

As for `Cc1nc(N2CCC3(CC2)CO[C@@H](C)[C@H]3N)c(CO)nc1Sc1ccnc(N2CC(C(C)(C)O)C2)c1Cl` [Example 32, 2-(1-(4-(5-((3S,4S)-4-amino-3-methyl-2-oxa-8-azaspiro[4.5]decan-8-yl)-6-(hydroxymethyl)-3-methylpyrazin-2-ylthio)-3-chloropyridin-2-yl)azetidin-3-yl)propan-2-ol], the IC50 in test [2] worked out at 3.7 nM.

In the case of `CC(C)(O)C1CN(c2nccc(Sc3cnc(N4CCC5(CC4)Oc4ncccc4[C@H]5N)c(CO)n3)c2Cl)C1` [Example 44, (R)-2-(1-(4-(5-(3-amino-3H-spiro[furo[2,3-b]pyridine-2,4′-piperidin]-1′-yl)-6-(hydroxymethyl)pyrazin-2-ylthio)-3-chloropyridin-2-yl)azetidin-3-yl)propan-2-ol], the results for the 50% inhibitory concentration (IC50) in test [1], in test [2] and in test [3] were 50 nM, 2.49 nM and 50 nM, respectively.

On to `CC(C)(O)C1CN(c2nccc(Sc3cnc(N4CCC5(CC4)Oc4ccc(F)cc4[C@H]5N)c(CO)n3)c2Cl)C1` [Example 20, (R)-2-(1-(4-(5-(3-amino-5-fluoro-3H-spiro[benzofuran-2,4′-piperidin]-1′-yl)-6-(hydroxymethyl)pyrazin-2-ylthio)-3-chloropyridin-2-yl)azetidin-3-yl)propan-2-ol], for which the IC50 in test [2] came to 6.9 nM.

Turning to `C[C@@H]1OCC2(CCN(c3ncc(Sc4ccnc(N5CCC(CO)C5)c4Cl)nc3CO)CC2)[C@@H]1N` (stereo partly drawn) [Example 8, (3-((3S,4S)-4-amino-3-methyl-2-oxa-8-azaspiro[4.5]decan-8-yl)-6-(3-chloro-2-(3-(hydroxymethyl)pyrrolidin-1-yl)pyridin-4-ylthio)pyrazin-2-yl)methanol], the IC50 in test [1] turned out to be 30 nM; in test [2] it was 0.88 nM.

Consider `COCC1(C)CN(c2nccc(Sc3cnc(N4CCC5(CC4)CO[C@@H](C)[C@H]5N)c(CO)n3)c2Cl)C1` [Example 33, (3-((3S,4S)-4-amino-3-methyl-2-oxa-8-azaspiro[4.5]decan-8-yl)-6-(3-chloro-2-(3-(methoxymethyl)-3-methylazetidin-1-yl)pyridin-4-ylthio)pyrazin-2-yl)methanol], for which the IC50 in test [1] was found to be 90 nM; in test [2], 4.1 nM.

Turning to `C[C@@H]1OCC2(CCN(c3ncc(Sc4ccnc(N5CC(CF)C5)c4Cl)nc3CO)CC2)[C@@H]1N` [Example 16, (3-((3S,4S)-4-amino-3-methyl-2-oxa-8-azaspiro[4.5]decan-8-yl)-6-(3-chloro-2-(3-(fluoromethyl)azetidin-1-yl)pyridin-4-ylthio)pyrazin-2-yl)methanol], the IC50 worked out at 40 nM in test [1] and 1 nM in test [2].

Take `CC(N)C1(C)CCN(c2ncc(Sc3ccnc(N4CCCC4CO)c3Cl)nc2CO)CC1` (stereo not drawn) [Example 3]: the IC50 in test [1] was found to be 1140 nM; in test [2] it was 3.48 nM.

For the molecule `C[C@@H]1OCC2(CCN(c3cnc(Sc4ccnc(N5CCCC5CO)c4Cl)c(N)n3)CC2)[C@@H]1N` (stereo partly drawn) [Example 37, (1-(4-(3-amino-5-((3S,4S)-4-amino-3-methyl-2-oxa-8-azaspiro[4.5]decan-8-yl)pyrazin-2-ylthio)-3-chloropyridin-2-yl)pyrrolidin-2-yl)methanol], the IC50 in test [2] turned out to be 2.4 nM.

On to `CC(C)(O)C1CN(c2nccc(Sc3cnc(N4CCC5(CC4)Oc4ccc(F)cc4[C@H]5N)cn3)c2Cl)C1` [Example 41, (R)-2-(1-(4-(5-(3-amino-5-fluoro-3H-spiro[benzofuran-2,4′-piperidin]-1′-yl)pyrazin-2-ylthio)-3-chloropyridin-2-yl)azetidin-3-yl)propan-2-ol], for which the IC50 in test [2] turned out to be 8.4 nM.

As to `CC(C)(O)C1CN(c2nccc(Sc3cnc(N4CCC5(CC4)CCC4(CC4)[C@H]5N)c(CO)n3)c2Cl)C1` [Example 49, 2-(1-(4-(5-(4-amino-8-azadispiro[2.1.5.2]dodecan-8-yl)-6-(hydroxymethyl)pyrazin-2-ylthio)-3-chloropyridin-2-yl)azetidin-3-yl)propan-2-ol], the IC50 was 270 nM in test [1] and 2.3 nM in test [2].

Regarding `C[C@@H]1OCC2(CCN(c3cnc(Sc4ccnc(N5CC(CS(C)(=O)=O)C5)c4Cl)c(N)n3)CC2)[C@@H]1N` [Example 38, (3S,4S)-8-(6-amino-5-(3-chloro-2-(3-(methylsulfonylmethyl)azetidin-1-yl)pyridin-4-ylthio)pyrazin-2-yl)-3-methyl-2-oxa-8-azaspiro[4.5]decan-4-amine], the IC50 in test [2] came out at 5.3 nM.

Take `C[C@@H]1OCC2(CCN(c3ncc(Sc4ccnc(N5CCC(CC#N)C5)c4Cl)nc3CO)CC2)[C@@H]1N` (stereo partly drawn) [Example 10, 2-(1-(4-(5-((3S,4S)-4-amino-3-methyl-2-oxa-8-azaspiro[4.5]decan-8-yl)-6-(hydroxymethyl)pyrazin-2-ylthio)-3-chloropyridin-2-yl)pyrrolidin-3-yl)acetonitrile]: the figures for the IC50 in test [1] and in test [2] were 40 nM and 1.22 nM, respectively.

Consider `Cc1nc(N2CCC3(CC2)Cc2ncccc2[C@H]3N)c(CO)nc1Sc1ccnc(N2CC(C(C)(C)O)C2)c1Cl` [Example 50, (S)-2-(1-(4-(5-(5-amino-5,7-dihydrospiro[cyclopenta[b]pyridine-6,4′-piperidin]-1′-yl)-6-(hydroxymethyl)-3-methylpyrazin-2-ylthio)-3-chloropyridin-2-yl)azetidin-3-yl)propan-2-ol], for which the IC50 in test [2] was found to be 4.84 nM.

The term IC50 denotes the concentration needed to halve the response being measured.
